Source: patent US20240238241A1, “PHARMACEUTICAL COMPOSITION FOR TREATMENT OF PANCREATIC CANCER AND BILE DUCT CANCER” (JAPAN SCIENCE AND TECHNOLOGY AGENCY, priority 2021, published 2024)

How the values were obtained:
ZIC5 protein [1] = target: T1, ZIC5 protein (Homo sapiens, UniProt Q96T25); assay: Western blotting of ZIC5 protein/GAPDH in A375 cells (none overexpressed); type: cell-based; details: 0, 0.1, 0.5 or 1 μM; 48 hours
T1 sequence (Q96T25 1-639): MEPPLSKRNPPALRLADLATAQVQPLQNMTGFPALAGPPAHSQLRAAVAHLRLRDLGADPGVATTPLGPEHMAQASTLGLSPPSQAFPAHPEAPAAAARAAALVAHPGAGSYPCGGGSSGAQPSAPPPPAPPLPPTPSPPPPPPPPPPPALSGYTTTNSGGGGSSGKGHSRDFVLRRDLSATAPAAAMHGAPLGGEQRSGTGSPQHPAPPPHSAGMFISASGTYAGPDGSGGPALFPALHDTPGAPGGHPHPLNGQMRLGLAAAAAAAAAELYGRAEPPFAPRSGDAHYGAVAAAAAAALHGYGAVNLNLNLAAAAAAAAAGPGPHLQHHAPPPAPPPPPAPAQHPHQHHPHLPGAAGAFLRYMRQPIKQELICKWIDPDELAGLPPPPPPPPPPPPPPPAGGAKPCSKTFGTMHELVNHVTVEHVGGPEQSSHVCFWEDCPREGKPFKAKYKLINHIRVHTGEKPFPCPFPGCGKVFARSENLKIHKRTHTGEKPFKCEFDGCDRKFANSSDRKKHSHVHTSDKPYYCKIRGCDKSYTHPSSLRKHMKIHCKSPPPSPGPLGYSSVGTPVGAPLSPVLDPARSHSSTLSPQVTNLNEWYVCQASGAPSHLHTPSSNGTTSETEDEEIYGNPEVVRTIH
Protocol: Regarding the compound (T-1) and the compound (T-2), the effect on the amount of the intracellular ZIC5 protein was investigated according to the Western blotting method. Specifically, A375 cells (none was overexpressed therein) were subjected to the addition of the compound (T-1) or the compound (T-2) so that the concentration thereof was 0, 0.1, 0.5, or 1 μM, and the cells were cultured for 48 hours. The cells after being cultured were recovered, and Western blotting was carried out using an anti-ZIC5 antibody and an anti-GAPDH antibody. The amount of each protein was quantified from a density of a band in the Western blotting image.

[2] = tested on: ZIC5 non-expressing normal human melanocyte cell (NHM); assay: apoptosis induction rate after compound treatment; type: cell-based; design: dose or concentration left out as unconfirmed; details: 48 hours
Protocol: (§1) The apoptosis induction rate (%) was measured as follows. First, a CellEvent Caspase-3/7 Green Detection Reagent (manufactured by Invitrogen Corporation) and Hoechst 33342 were added to each kind of cell, followed by incubation for 40 minutes. Next, the staining state of the cells after incubation was analyzed by using a DAPI filter and an FITC filter of an imaging cytometer “IN Cell Analyzer 2000” (manufactured by GE Healthcare). The proportion (%) of Caspase-3/7 active cells (CellEvent Caspase-3/7 Green Detection Reagent positive cells) with respect to all DAPI-stained cells (DAPI positive cells) was determined by “IN Cell Analyzer Workstation 3.7” (manufactured by GE Healthcare), and this was defined as the apoptosis induction rate (%). The statistical difference was determined according to the Tukey's multiple comparison test (n=3, *p<0.05, **p<0.01, ***p<0.001).
(§2) A total of 7 kinds of cells of 2 kinds of vemurafenib-resistant lines derived from human melanoma (an A375vemR line and an HT144vemR line), 2 kinds of ZIC5 high-expressing melanoma cell lines (an A375 line and an HT144 line), 2 kinds of ZIC5 low-expressing melanoma cell lines (a Colo829 line and an SKmel28 line), and a ZIC5 non-expressing normal human melanocyte cell (NHM) were treated with the compound (T-1) or compound (T-2), and regarding the cells that had been subsequently cultured for 48 hours, the apoptosis induction rate (%) was determined in the same manner as in Example 1. […]

[3] = tested on: vemurafenib-resistant lines derived from human melanoma (A375vemR line, HT144vemR line); assay: apoptosis induction rate after compound treatment; type: cell-based; design: dose or concentration left out as unconfirmed; details: 48 hours
Protocol: as §1, §2

[4] = tested on: ZIC5 high-expressing melanoma cell lines (A375 line, HT144 line); assay: apoptosis induction rate after compound treatment; type: cell-based, human; design: dose or concentration left out as unconfirmed; details: 48 hours
Protocol: as §1, §2

[5] = tested on: ZIC5 low-expressing melanoma cell lines (Colo829 line, SKmel28 line); assay: apoptosis induction rate after compound treatment; type: cell-based, human; design: dose or concentration left out as unconfirmed; details: 48 hours
Protocol: as §1, §2

A375 cells = assay: relative cell number after compound then BRAF inhibitor vemurafenib; type: cell-based, human; details: 0.5 μM T-1 or 50 nM T-2 for 48 hours, then vemurafenib 0.1 μM for 72 hours
Protocol: Specifically, 0.5 μM of the compound (T-1) or 50 nM of the compound (T-2) was added to A375 cells, culturing was carried out for 48 hours, and then vemurafenib was added thereto a concentration of 0.1 μM, and culturing was further carried out for 72 hours. After the culturing, cell nuclei were stained with Hoechst to count the number of cells. The number of cells of the A375 cells cultured without adding any compound was set to 1, and the relative cell number of each kind of cell was determined.

A375 melanoma cells = assay: relative cell number in cells transfected with ZIC5 expression plasmid (Z5) or empty vector (C); type: cell-based, human; details: 0.1 or 0.5 μM T-1, 10 nM T-2; 4 days; Z5 versus empty vector
Protocol: Specifically, a ZIC5 expression plasmid (Z5) or an empty vector (C) was introduced into A375 melanoma cells by transfection, and cells into which each of the plasmids had been introduced were selected. Next, these cells were subjected to the addition of 0.1 μM or 0.5 μM of the compound (T-1) or 10 nM of the compound (T-2) and cultured for 4 days. After the culturing, cell nuclei were stained with Hoechst, and the number of cells was counted with an imaging cytometer “IN Cell Analyzer 2000”. The number of cells, into which an empty vector had been introduced and which had not been subjected to the compound treatment, was set to 1, and the relative cell number of each kind of cell was determined. […] In the figure, “C” is for cells into which the empty vector has been introduced, and “Z5” is for cells into which the ZIC5 expression plasmid has been introduced.

ZIC5 protein [6] = target: T1, ZIC5 protein; assay: secondary screening: ZIC5 protein quantified by anti-ZIC5 immunostaining and imaging cytometer in A375 cells overexpressing ZIC5; details: A-375, read-out: ZIC5 Protein Amount (Relative Value);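 also: compounds added at 0.1, 1, 5 or 10 µM to A375 cells overexpressing ZIC5 without a fusion tag, cells fixed the next day, ND means cells died before measurement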
Protocol: In the secondary screening, A375 cells overexpressing the ZIC5 protein (without a fusion protein) were subjected to the addition of the primary hit compound to a final concentration of 0.1 μM, 1 μM, 5 μM, or 10 μM and cultured, and then the cells were fixed on the next day. The fixed cells were subjected to staining by using an anti-ZIC5 antibody (clone: GTX104840) and an Alexa Fluor 568-anti-rabbit IgG antibody as a secondary antibody, and the amount of the ZIC5 protein was quantified using the imaging cytometer.

[7] = tested on: pancreatic cancer cell lines (AsPC-1, Panc-1, MiaPaca-2) and bile duct cancer cell line (RBE); assay: apoptosis induction rate with gemcitabine after siRNA transfection; type: cell-based; details: gemcitabine 0.1 μM, 48 hours
Protocol: as §1
Next, each kind of cell was introduced by transfection with siNeg and siZIC5 listed in Table 2 and cultured for 24 hours. Then, gemcitabine, which is a standard therapeutic drug for pancreatic cancer and bile duct cancer, was added thereto, the culture was further carried out for 48 hours, and then the apoptosis induction rate (%) was investigated.

| Structure (SMILES) | remaining activity at 0.1 µM (ZIC5 protein [6]) | remaining activity at 1 µM (ZIC5 protein [6]) | remaining activity at 5 µM (ZIC5 protein [6]) | also measured |
| --- | --- | --- | --- | --- |
| O=C1C=C2C(=CCOC2O)O1 (stereo not drawn) [Compound T-1] | 83.4% | 76.7% |  | relative amount of the ZIC5 protein ([amount of ZIC5 protein]/[amount of GAPDH protein]) (ZIC5 protein [1]): reduced depending on the concentrations; apoptosis induction [2]: did not induce apoptosis; apoptosis induction [3]: induced apoptosis; apoptosis induction [4]: induced apoptosis; apoptosis induction ([5]; both ZIC5 low-expressing lines): did not induce apoptosis; relative cell number in combination with vemurafenib (A375 cells): synergistically reduce the number of cells; apoptosis induction and suppression of cancer cell proliferation in ZIC5-overexpressing cells (Z5) (A375 melanoma cells): restored |
| COc1cc(O)c2c(c1)/C=C/C[C@H](O)[C@H](O)C(=O)/C=C\C[C@H](C)OC2=O [Compound T-2] | 89.6% | 83.1% | 72.8% | relative amount of the ZIC5 protein ([amount of ZIC5 protein]/[amount of GAPDH protein]) (ZIC5 protein [1]): reduced depending on the concentrations; apoptosis induction [2]: did not induce apoptosis; apoptosis induction [3]: induced apoptosis; apoptosis induction [4]: induced apoptosis; apoptosis induction ([5]; Colo829 line): induced apoptosis; apoptosis induction ([5]; SKmel28 line): did not induce apoptosis; relative cell number in combination with vemurafenib (A375 cells): synergistically reduce the number of cells; apoptosis induction and suppression of cancer cell proliferation in ZIC5-overexpressing cells (Z5) (A375 melanoma cells): restored; remaining activity at 10 µM (ZIC5 protein [6]): 70.8% |
| C=C1C(=O)O[C@H]2C1CC/C(C)=C\CC[C@@]1(C)O[C@H]21 (stereo partly drawn) [Compound T-3] | 89.8% | 98.2% | 55.3% |  |
| C=C(C)[C@H]1O[C@H]2CC[C@@]3(C)[C@@](O)(CC[C@H]4C5OC(C)(C)[C@H]6C[C@@H]7C(=C)Cc8c(Cl)cc9[nH]c(c5c9c8[C@@]76O)[C@@]43C)[C@]23O[C@@H]3[C@H]1O (stereo partly drawn) [Compound T-4] | 111% | 96% | 75.4% |  |
| CCCCCCCCCCCCC/C=C/[C@H](O)[C@H](N)CO [Compound T-5] | 108% | 118% | 62.6% |  |
| CC(=O)O[C@H]1C[C@]2(O)[C@@H]3CC[C@@H]4C[C@@H](O)CC[C@]4(C)[C@H]3CC[C@]2(C)[C@H]1c1ccc(=O)oc1 [Compound T-7] | 103% | 76.4% |  |  |
| CC(=O)O[C@H]1[C@H]2O[C@@]23[C@@H]2CC[C@]4(O)C[C@@H](O)CC[C@]4(C)[C@H]2CC[C@]3(C)[C@H]1c1ccc(=O)oc1 [Compound T-8] | 88.2% | 90.8% | 70.5% | remaining activity at 10 µM (ZIC5 protein [6]): 44.7% |
| C[C@@H]1O[C@@H](O[C@@H]2C=C3CC[C@@H]4[C@H](CC[C@]5(C)[C@@H](c6ccc(=O)oc6)CC[C@]45O)[C@@]3(C)CC2)[C@H](O)[C@H](O)[C@H]1O [Compound T-10] | 70.2% | 42.1% | 50% |  |
| C[C@@H]1O[C@@H](O[C@H]2C[C@@H](O)[C@]3(CO)[C@H]4[C@H](O)C[C@]5(C)[C@@H](C6=CC(=O)OC6)CC[C@]5(O)[C@@H]4CC[C@]3(O)C2)[C@H](O)[C@H](O)[C@H]1O [Compound T-11] | 90.6% | 67.8% |  |  |
| C[C@@H]1O[C@@H](O[C@H]2CC[C@]3(C=O)[C@H]4CC[C@]5(C)[C@@H](c6ccc(=O)oc6)CC[C@]5(O)[C@@H]4CC[C@]3(O)C2)[C@H](O)[C@H](O)[C@H]1O[C@@H]1O[C@H](CO)[C@@H](O)[C@H](O)[C@H]1O [Compound T-12] | 76.8% | 72.5% | 57.1% |  |
| Nc1ccn([C@@H]2O[C@H](CO)[C@@H](O)C2(F)F)c(=O)n1 [gemcitabine] |  |  |  | apoptosis induction [7]: apoptosis was induced |
